ChEMBL document CHEMBL3430912, “GSK Tres Cantos Anti-Kinetoplastid Screening (TCAKS) Data”

Legend:
[1] = test system: Trypanosoma cruzi; assay: GSK_TCAKS: pIC50 Trypanosoma cruzi viability assay using beta-GAL activity. This assay was run at single shot at 5uM compound concentration per well. The biological reagents consisted of NIH-3T3 host cells and trypomastigotes parasitic cells; both cell types were set to a 3.3 * 10^5 cells/mL dilution in assay DMEM by means of a CASY cell counter device using a 60um capillary. 6 uL of the mixture were dispensed per well (about 1 * 10^3 host-cells and 1 * 10^3 parasites) with a Multidrop Combi dispenser. […] In all wells, the percentage of DMSO never exceeded 0.5%. Plates incubated for four days at 37C, 5% CO2. The substrate used for the assay fluorescence intensity (FLINT) readout was resorufin-beta-D-galactopiranoside (Sigma-Aldrich) at 5uM per well. It was diluted in PBS supplemented with the soft detergent Igepal (Fluka).; assay type: functional, organism-based, Mus musculus; details: Tulahuen, NIH3T3
[2] = test system: Trypanosoma cruzi; assay: (§1) GSK_TCAKS: pIC50 Trypanosoma cruzi Imaging: Infected Cells. […] Cells were then washed once with PBS before infection. T. cruzi trypomastigotes, collected at days 5 to 8 after infection from LLC-MK2 parasite infected cultures, were allowed to swim out for 4h at 37C from a centrifuged pellet (2,500 rpm/10 min/room temperature). Trypomastigotes were then collected and counted in a CASY Cell Counter. Trypomastigotes, in supplemented DMEM, were added to H9c2 cultures in a multiplicity of infection of 1 and incubated for 18 h. Cells were washed once with PBS before incubation of the infected H9c2 monolayer with trypsin (Life-Technologies) to detach cells from the flask. Cells were counted in a CASY Cell Counter using a 150 um capillary and their density set at 5 * 10^4 cells per mL in supplemented assay DMEM. Infected H9c2 were dispensed into 384-well poly-lysine coated assay plates at 50uL per well using a Multidrop Combi dispenser. After seeding them, the plates were incubated at 37C, 5% CO2 for 72h. Cultures were then fixed and stained by addition of 50 uL of a solution containing 8% formaldehyde and 4 uM DRAQ5 DNA dye (BioStatus, UK) per well. […] Five images were collected per well for reliable statistical analysis. Automated image analysis was performed with a script developed on Acapella High Content Imaging and Analysis Software (PerkinElmer). Output: percentage of infected cells per well as a second infection marker.; assay type: functional, organism-based, Rattus norvegicus; details: H9c2, 4 h
[3] = test system: Trypanosoma cruzi; assay: GSK_TCAKS: pIC50 Trypanosoma cruzi Imaging: Amastigotes/Cell. […] Cells were then washed once with PBS before infection. T. cruzi trypomastigotes, collected at days 5 to 8 after infection from LLC-MK2 parasite infected cultures, were allowed to swim out for 4h at 37C from a centrifuged pellet (2,500 rpm/10 min/room temperature). Trypomastigotes were then collected and counted in a CASY Cell Counter. Trypomastigotes, in supplemented DMEM, were added to H9c2 cultures in a multiplicity of infection of 1 and incubated for 18 h. Cells were washed once with PBS before incubation of the infected H9c2 monolayer with trypsin (Life-Technologies) to detach cells from the flask. Cells were counted in a CASY Cell Counter using a 150 um capillary and their density set at 5 * 10^4 cells per mL in supplemented assay DMEM. Infected H9c2 were dispensed into 384-well poly-lysine coated assay plates at 50uL per well using a Multidrop Combi dispenser. After seeding them, the plates were incubated at 37C, 5% CO2 for 72h. Cultures were then fixed and stained by addition of 50 uL of a solution containing 8% formaldehyde and 4 uM DRAQ5 DNA dye (BioStatus, UK) per well. […] Five images were collected per well for reliable statistical analysis. Automated image analysis was performed with a script developed on Acapella High Content Imaging and Analysis Software (PerkinElmer). Output: number of amastigotes per cell as infection level measurement.; assay type: functional, organism-based, Rattus norvegicus; details: H9c2, 4 h
[4] = test system: Trypanosoma cruzi; assay: as §1, with “H2C9” for “Trypanosoma cruzi”, “H9c2 Host Cardiomyocytes.” for “Infected Cells.”, “Number” for “percentage”, “H9c2 Host Cardiomyocytes nuclei to determine drug-related cytotoxicity.” for “infected cells per well as a second infection marker.”; assay type: functional, organism-based, Rattus norvegicus; details: H9c2, 4 h
[5] = test system: Leishmania donovani; assay: GSK_TCAKS: pIC50 Leishmania donovani viability assay using fluorescence intensity. Assay plates (1536-well) were prepared by adding 30nL per well of compound. For single shot assay, the final compound concentration was 5uM. […] Briefly, eGFP LdBOB axenic amastigotes were harvested, fixed and counted in a CASY cell counter (Roche-Applied Science). A final concentration of 1.5 * 10^5 cells per well were prepared in amastigote media containing 500 U/mL penicillin/streptomycin (Invitrogen) and 6uL was dispensed to each experimental well using a Multidrop Combi dispenser (Thermo Scientific). 6uL of assay media was dispensed to control columns used as reference for 100% compound response. Following incubation for 72 h at 37C, 5% CO2, 2 uL of resazurin was added to each well at a final concentration of 0.5 mM in phosphate buffered saline (PBS) with IGEPAL (Sigma-Aldrich), 0.05% (v/v).; assay type: functional, organism-based
[6] = test system: Leishmania donovani; assay: GSK_TCAKS: pIC50 Leishmania donovani Imaging: Infected Macrophages. Assay plates (384-well) were prepared by adding 250nL of compound to each well. For single shot assay, the final compound concentration was 5 uM. […] Automated image analysis was performed with a script developed on Acapella High Content Imaging and Analysis Software (PerkinElmer). Output: Percent of infected macrophage cells were reported for each well.; assay type: functional, organism-based, Homo sapiens; details: THP-1
[7] = test system: Leishmania donovani; assay: GSK_TCAKS: pIC50 Leishmania donovani Imaging: Amastigotes/Macrophages. Assay plates (384-well) were prepared by adding 250nL of compound to each well. For single shot assay, the final compound concentration was 5 uM. […] Automated image analysis was performed with a script developed on Acapella High Content Imaging and Analysis Software (PerkinElmer). Output: Average number of amastigotes per macrophage cell were reported for each well.; assay type: functional, organism-based, Homo sapiens; details: THP-1
[8] = test system: Leishmania donovani; assay: GSK_TCAKS: pIC50 Leishmania donovani Imaging: THP-1 Host Macrophages. Assay plates (384-well) were prepared by adding 250nL of compound to each well. For single shot assay, the final compound concentration was 5 uM. […] Automated image analysis was performed with a script developed on Acapella High Content Imaging and Analysis Software (PerkinElmer). Output: THP-1 cell count were reported for each well.; assay type: functional, organism-based, Homo sapiens
[9] = test system: Trypanosoma brucei brucei; assay: GSK_TCAKS: pIC50 Trypanosoma brucei viability assay using fluorescence intensity. Assay plates (1536-well) were prepared by dispensing 25nL of compound solution per well using an Echo acoustic dispenser (Labcyte).; assay type: functional, organism-based; details: Lister 427, 2 h
[10] = test system: Trypanosoma brucei brucei; assay: GSK_TCAKS: pIC50 Trypanosoma brucei viability assay using luminiscence. Assay plates (1536-well) were prepared. T. brucei cultures were harvested and counted in a CASY cell counter. A parasite suspension was prepared at a final concentration of 5 * 10^4 cells/mL in complete HMI9 medium and 6uL was dispensed to all wells containing compounds using a Multidrop Combi dispenser. 6uL of HMI9 media with 0.4% DMSO were dispensed to control columns. Plates were incubated for 24 h at 37C, 5% CO2 then tempered for 10 min at room temperature. ATP content was quantified by adding 4 uL of CellTiter-Glo Reagent (Promega) according to the manufacturer's instructions. Luminescence was measured using a ViewLux.; assay type: functional, organism-based; details: Lister 427, CASY
[11] = GSK_TCAKS: pIC50 HepG2 human cell line viability assay using luminiscence. […] Seeding density was checked to ensure that new mono-layers were not more than 50% confluent at the time of harvesting. Cell suspension was added to 500 mL of the same medium at a final density of 1.2 * 10^5 cells/mL. This cell suspension was dispensed (25 uL, 3000 cells per well) into 384-well clear-bottom plates using a Multidrop Combi dispenser. Prior to addition of the cell suspension, the screening compounds (250 nL) were pre-dispensed into the plates with an Echo liquid handler. Plates were incubated for 48 h at 37C, 5% CO2. After incubation, plates equilibrated at room temperature for 30 min before proceeding to develop the luminescent signal. The signal developer, CellTiter-Glo Reagent, was allowed to equilibrate at room temperature for 30 min and added to the plates (25uL per well) using a Multidrop Combi dispenser. Plates were left for 10 min at room temperature for stabilization and then read using a ViewLux.; assay type: toxicity, cell-based
[12] = test system: NIH3T3; assay: GSK_TCAKS: pIC50 NIH 3T3 cell line viability assay using luminiscence. Tissue culture surface treated assay plates (1536-well) were used. […] The 100% cells survival control was determined exposing the host-cells to a 0.5% DMSO concentration, whereas the 100% toxicity control was achieved by seeding the cells in presence of Amphotericin B at 50uM. Plates were incubated for four days at 37C, 5% CO2. The assay readout was developed by addition of 5uL of CellTiter-Glo Reagent following the manufacturer's instructions. Luminiscence was measured using a ViewLux.; assay type: functional, cell-based; details: Mus musculus, NIH3T3, 96 h
[13] = molecular target: Sterol 14-alpha demethylase (Trypanosoma cruzi (strain CL Brener), UniProt Q7Z1V1); assay: GSK_TCAKS: pIC50 CYP51 from Trypanosoma cruzi.; assay type: functional
Sequence of Sterol 14-alpha demethylase (Q7Z1V1 whole entry): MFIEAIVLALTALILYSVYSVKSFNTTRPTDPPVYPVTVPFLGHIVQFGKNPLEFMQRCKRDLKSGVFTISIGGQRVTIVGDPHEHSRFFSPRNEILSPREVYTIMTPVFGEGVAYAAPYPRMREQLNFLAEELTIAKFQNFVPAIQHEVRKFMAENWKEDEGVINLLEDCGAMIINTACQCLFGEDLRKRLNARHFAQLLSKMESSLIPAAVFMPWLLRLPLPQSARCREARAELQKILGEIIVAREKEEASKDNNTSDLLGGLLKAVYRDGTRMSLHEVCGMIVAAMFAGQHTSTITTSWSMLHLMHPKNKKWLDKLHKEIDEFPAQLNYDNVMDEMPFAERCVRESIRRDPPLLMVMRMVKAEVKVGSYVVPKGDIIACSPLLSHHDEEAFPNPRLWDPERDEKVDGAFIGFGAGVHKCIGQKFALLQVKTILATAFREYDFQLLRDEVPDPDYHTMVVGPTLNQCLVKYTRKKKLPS

SMILES | IC50 [1] | IC50 [2] | IC50 [3] | IC50 [4] | IC50 [5] | IC50 [6] | IC50 [7] | IC50 [8] | IC50 [9] | IC50 [10] | IC50 at 48 h [11] | IC50 [12] | IC50 [13]
Cc1ccc(C)c(-n2nnnc2Sc2nc([N+](=O)[O-])nn2C)c1 | 501 nM | 794 nM | 251 nM | > 50.1 µM | > 50.1 µM | > 50.1 µM | > 50.1 µM | > 50.1 µM | 12.6 µM | 15.8 µM | > 100 µM | > 50.1 µM | > 100 µM
O=c1ccn(-c2ccc([N+](=O)[O-])cc2Cl)c2ccc(F)cc12 | 1580 nM | 3980 nM | 1260 nM | > 50.1 µM | > 50.1 µM | > 50.1 µM | > 50.1 µM | > 50.1 µM | 25.1 µM | > 39.8 µM | > 100 µM | > 50.1 µM | 15.8 µM
CN(C(=O)Nc1ccc2c(c1)CCN(C1CCC1)CC2)c1ccc(C#N)cc1 | 2000 nM | 3980 nM | 2000 nM | > 50.1 µM | 39.8 µM | > 50.1 µM | > 50.1 µM | > 50.1 µM | 0.2 µM | 0.631 µM | > 100 µM | 39.8 µM | > 100 µM
COc1ccc2nccc([C@H](O)CN3CC[C@H](NC(=O)c4ccc(Br)cc4)[C@@H](O)C3)c2n1 | 251 nM | 1580 nM | 158 nM | 2 µM | 3.16 µM | > 50.1 µM | > 50.1 µM | > 50.1 µM | 0.2 µM | 0.501 µM | > 100 µM | > 50.1 µM | 6.31 µM
O=C(Nc1cccc(Cl)c1)N1CCCCC1c1cccnc1 (stereo not given) | 178 nM | 200 nM | 200 nM | > 50.1 µM | 3.16 µM | > 50.1 µM | > 50.1 µM | > 50.1 µM | > 39.8 µM | > 39.8 µM | > 100 µM | 31.6 µM | 0.02 µM
CC(CNS(=O)(=O)c1ccc(OC(F)F)cc1)c1ccc(NC(=O)c2ccncc2)cc1 (stereo not given) | 200 nM | 100 nM | 79.4 nM | > 50.1 µM | > 50.1 µM | > 50.1 µM | 5.01 µM | 15.8 µM | 7.94 µM | 20 µM | 100 µM | > 50.1 µM | 0.0501 µM
Cn1cc(CN2CCN(c3ccc4c(c3)CCN(C(=O)[C@H]3C[C@@H]3c3ccccc3)CC4)CC2)cn1 | 1580 nM | 3160 nM | 794 nM | 31.6 µM | 0.631 µM | 31.6 µM | 1 µM | 6.31 µM | 25.1 µM | 39.8 µM | 50.1 µM | 20 µM | 15.8 µM
Cc1ccc(S(=O)(=O)Cn2nnnc2C(c2cccnc2)N2CCN(c3ccccc3)CC2)cc1 (stereo not given) | 501 nM | 316 nM | 316 nM | > 50.1 µM | 1 µM | > 50.1 µM | > 50.1 µM | > 50.1 µM | 31.6 µM | > 39.8 µM | > 100 µM | 31.6 µM | 0.2 µM
Cc1cc(C#N)c([N+](=O)[O-])cc1Br | 200 nM | 316 nM | 50.1 nM | 50.1 µM | 25.1 µM | 39.8 µM | 31.6 µM | 25.1 µM | 0.794 µM | 3.98 µM | 31.6 µM | 20 µM | 7.94 µM
COc1ccc([N+](=O)[O-])cc1NC(=O)Nc1cccc(Cl)c1 | 794 nM | 10000 nM | 398 nM | > 50.1 µM | > 50.1 µM | > 50.1 µM | > 50.1 µM | 50.1 µM | 6.31 µM | 20 µM | > 100 µM | > 50.1 µM | > 100 µM
